Laboratory results published in the supplement of paper PMC10307832.

What was measured:
Assay in all cases: relative viability (nuclei count vs DMSO), 5 days (fraction); higher = more cells survive
Bexarotene + Navitoclax = compound: C=C(c1ccc(C(=O)O)cc1)c1cc2c(cc1C)C(C)(C)CCC2(C)C [Bexarotene] + CC1(C)CCC(c2ccc(Cl)cc2)=C(CN2CCN(c3ccc(C(=O)NS(=O)(=O)c4ccc(N[C@H](CCN5CCOCC5)CSc5ccccc5)c(S(=O)(=O)C(F)(F)F)c4)cc3)CC2)C1 [Navitoclax] (partner 0.5 µM)
Procedure, shortened: (§1)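 Lung cancer cell lines in 1536-well plates were dosed by pin tool the day after seeding, either with one drug alone or with a fixed anchor-drug dose plus five library-drug doses (not always all listed) in √10 steps. After 5 days, cells were fixed and their nuclei stained in one step (final 0.05% Triton X-100, 1% formaldehyde, 1 ug/ml Hoechst), then counted on 4× images. Relative viability is the nuclei count in treated wells divided by that in vehicle wells. Values are medians of duplicate plates.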

Bexarotene + Luminespib = compound: C=C(c1ccc(C(=O)O)cc1)c1cc2c(cc1C)C(C)(C)CCC2(C)C [Bexarotene] + CCNC(=O)c1noc(-c2cc(C(C)C)c(O)cc2O)c1-c1ccc(CN2CCOCC2)cc1 [Luminespib] (partner 0.01 µM)
Procedure, shortened: as §1

Bexarotene + Foretinib = compound: C=C(c1ccc(C(=O)O)cc1)c1cc2c(cc1C)C(C)(C)CCC2(C)C [Bexarotene] + COc1cc2c(Oc3ccc(NC(=O)C4(C(=O)Nc5ccc(F)cc5)CC4)cc3F)ccnc2cc1OCCCN1CCOCC1 [Foretinib] (partner 0.25 µM)
Procedure, shortened: as §1

Bexarotene + Linsitinib = compound: C=C(c1ccc(C(=O)O)cc1)c1cc2c(cc1C)C(C)(C)CCC2(C)C [Bexarotene] + C[C@]1(O)C[C@@H](c2nc(-c3ccc4ccc(-c5ccccc5)nc4c3)c3c(N)nccn32)C1 [Linsitinib] (partner 1 µM)
Procedure, shortened: as §1

Cell Line | relative viability (Bexarotene + Navitoclax; first compound 0.08 µM) | relative viability (Bexarotene + Navitoclax; first compound 0.253 µM) | relative viability (Bexarotene + Navitoclax; first compound 0.8 µM) | relative viability (Bexarotene + Navitoclax; first compound 2.53 µM) | relative viability (Bexarotene + Navitoclax; first compound 8 µM) | relative viability (Bexarotene + Luminespib; first compound 0.08 µM) | relative viability (Bexarotene + Luminespib; first compound 0.253 µM) | relative viability (Bexarotene + Luminespib; first compound 0.8 µM) | relative viability (Bexarotene + Luminespib; first compound 2.53 µM) | relative viability (Bexarotene + Luminespib; first compound 8 µM) | relative viability (Bexarotene + Foretinib; first compound 0.08 µM) | relative viability (Bexarotene + Foretinib; first compound 0.253 µM) | relative viability (Bexarotene + Foretinib; first compound 0.8 µM) | relative viability (Bexarotene + Foretinib; first compound 2.53 µM) | relative viability (Bexarotene + Foretinib; first compound 8 µM) | relative viability (Bexarotene + Linsitinib; first compound 0.08 µM) | relative viability (Bexarotene + Linsitinib; first compound 0.253 µM) | relative viability (Bexarotene + Linsitinib; first compound 0.8 µM) | relative viability (Bexarotene + Linsitinib; first compound 2.53 µM) | relative viability (Bexarotene + Linsitinib; first compound 8 µM)
LOU-NH91 | 0.608 | 0.637 | 0.502 | 0.597 | 0.512 | 0.364 | 0.318 | 0.346 | 0.287 | 0.268 | 0.88 | 0.89 | 0.84 | 0.878 | 0.786 | 0.912 | 0.901 | 0.806 | 0.79 | 0.823
LU99A | 0.931 | 0.828 | 0.826 | 0.895 | 0.89 | 0.268 | 0.251 | 0.238 | 0.291 | 0.244 | 0.908 | 0.865 | 0.898 | 0.931 | 0.809 | 0.616 | 0.504 | 0.477 | 0.518 | 0.653
LXF-289 | 1.11 | 1.09 | 1.08 | 1.1 | 0.974 | 0.8 | 0.824 | 0.798 | 0.874 | 0.8 | 1.18 | 1.02 | 1.02 | 1.09 | 1.22 | 1.06 | 1.11 | 1.04 | 1.11 | 1.01
NCI-H23 | 1.01 | 0.96 | 0.853 | 0.923 | 0.729 | 0.229 | 0.201 | 0.238 | 0.234 | 0.204 | 0.888 | 1.06 | 0.921 | 1.01 | 0.785 | 0.737 | 0.673 | 0.533 | 0.638 | 0.654
NCI-H322M | 1.19 | 1.33 | 1.17 | 1.19 | 1.26 | 1.05 | 0.902 | 0.862 | 0.982 | 0.812 | 1.06 | 1.14 | 0.946 | 0.977 | 0.978 | 1.08 | 0.947 | 0.846 | 0.92 | 0.891
NCI-H441 | 0.845 | 0.747 | 1.02 | – | 0.541 | 0.373 | 0.384 | 0.314 | 0.295 | 0.377 | 1.01 | 1.04 | 1.13 | 0.841 | 0.927 | 0.587 | 0.583 | 0.578 | 0.616 | 0.556
NCI-H460 | 1.31 | 1.18 | 1.05 | 0.993 | 0.918 | 0.0252 | 0.0297 | 0.0376 | 0.0318 | 0.0222 | 1.1 | 0.99 | 0.976 | 1.02 | 1.01 | 0.94 | 0.865 | 0.757 | 0.66 | 0.744
NCI-H520 | 1.14 | 1.11 | 1.03 | 1.14 | 0.993 | 0.236 | 0.22 | 0.229 | 0.22 | 0.226 | 0.854 | 0.678 | 0.652 | 0.812 | 0.727 | 1.02 | 0.951 | 0.79 | 0.976 | 0.88
